How the values were obtained:
sugar cane [1] = test: Phytotoxicity on sugar cane, spray above weed one week before planting (Example 5)
Description: (§1) The “phytotoxicity” evaluated herein is the damage characteristic determined to be due to a treated compound, and is clearly discriminated from the damage characteristic caused by a harmful animal or plant disease.
(§2) A soil is packed into a plastic pot, and seeds of Amaranthus retroflexus are seeded thereon. Thereafter, the pot is placed in a greenhouse, and the weed is grown.
(§3) A 30 cm to 40 cm stem cutting of sugar cane is placed on a wet soil, and germination is stimulated. The stem cutting from which a bud has been grown to about 1 cm is selected, and the length of the stem cutting is adjusted to be 3 cm so that the stem cutting has one node.
(§4) The pot for a test is placed in a greenhouse.

Amaranthus retroflexus [2] = test: Herbicidal activity, soil surface spray, insecticide-treated stem cutting (Example 6); assay type: in vivo; conditions: 3 cm stem cutting treated with clothianidin, thiamethoxiam, imidacloprid, dinotefuran, nitenpyram, acetamiprid or thiacloprid, four weeks after treatment
Description: A 30 cm to 40 cm stem cutting of sugar cane is placed on a wet soil, and germination is stimulated. The stem cutting from which a bud has grown to about 1 cm is selected, and the length of the stem cutting is adjusted to be 3 cm so that the stem cutting has one node. Clothianidin, thiamethoxiam, imidacloprid, dinotefuran, nitenpyram, acetamiprid or thiacloprid is adhered to the stem cutting. A soil is packed into a plastic pot, and seeds of Amaranthus retroflexus are seeded thereon. The stem cutting of sugar cane treated with clothianidin, thiamethoxiam, imidacloprid, dinotefuran, nitenpyram, acetamiprid or thiacloprid is planted in the soil packed into the pot at a depth of 2 cm. […] Thereafter, the pot for a test is placed in a greenhouse.

Amaranthus retroflexus [3] = test: Herbicidal activity, spray above weed before planting, insecticide-treated stem cutting (Example 7); assay type: in vivo; conditions: sprayed above weed, 3 cm stem cutting treated with clothianidin, thiamethoxiam, imidacloprid, dinotefuran, nitenpyram, acetamiprid or thiacloprid planted one week after treatment, four weeks after treatment
Description: A 30 cm to 40 cm stem cutting of sugar cane is placed on a wet soil, and germination is stimulated. The stem cutting from which a bud has grown to about 1 cm is selected, and the length of the stem cutting is adjusted to be 3 cm so that the stem cutting has one node. Clothianidin, thiamethoxiam, imidacloprid, dinotefuran, nitenpyram, acetamiprid or thiacloprid is adhered to the stem cutting.

sugar cane [4] = test: Phytotoxicity on sugar cane, spray above weed before planting, insecticide-treated stem cutting (Example 7)
Description: as §1, §2
as §3, with “has” for “has been”, “node. Clothianidin, thiamethoxiam, imidacloprid, dinotefuran, nitenpyram, acetamiprid or thiacloprid is adhered to the stem cutting.” for “node.”
as §4

Amaranthus retroflexus [5] = test: Herbicidal activity, soil surface spray, strobilurin-treated stem cutting (Example 8); assay type: in vivo; conditions: 3 cm stem cutting treated with kresoxim-methyl, azoxystrobin or another listed strobilurin fungicide, four weeks after treatment
sugar cane [6] = test: Phytotoxicity on sugar cane, soil surface spray, strobilurin-treated stem cutting (Example 8)
Excerpt: as §1
A 30 cm to 40 cm stem cutting of sugar cane is placed on a wet soil, and germination is stimulated. The stem cutting from which a bud has grown to about 1 cm is selected, and the length of the stem cutting is adjusted to be 3 cm so that the stem cutting has one node. Kresoxim-methyl, azoxystrobin, trifloxystrobin, fluoxastrobin, picoxystrobin, pyraclostrobin, dimoxystrobin, pyribencarb, metominostrobin, orysastrobin, enestrobin, pyraoxystrobin or pyrametostrobin is adhered to the stem cutting. A soil is packed into a plastic pot, and seeds of Amaranthus retroflexus are seeded thereon. The stem cutting of sugar cane treated with kresoxim-methyl, azoxystrobin, trifloxystrobin, fluoxastrobin, picoxystrobin, pyraclostrobin, dimoxystrobin, pyribencarb, metominostrobin, orysastrobin, enestrobin, pyraoxystrobin or pyrametostrobin is planted in the soil packed into the pot at a depth of 2 cm. […] Thereafter, the pot for a test is placed in a greenhouse.

Amaranthus retroflexus [7] = test: Herbicidal activity, spray above weed before planting, strobilurin-treated stem cutting (Example 9); assay type: in vivo; conditions: sprayed above weed, 3 cm stem cutting treated with kresoxim-methyl, azoxystrobin or another listed strobilurin fungicide planted one week after treatment, four weeks after treatment
sugar cane [8] = test: Phytotoxicity on sugar cane, spray above weed before planting, strobilurin-treated stem cutting (Example 9)
Description: as §1, §2
as §3, with “has” for “has been”, “node. Kresoxim-methyl, azoxystrobin, trifloxystrobin, fluoxastrobin, picoxystrobin, pyraclostrobin, dimoxystrobin, pyribencarb, metominostrobin, orysastrobin, enestrobin, pyraoxystrobin or pyrametostrobin is adhered to the stem cutting.” for “node.”
as §4

Amaranthus retroflexus [9] = test: Herbicidal activity, soil surface spray, azole-fungicide-treated stem cutting (Example 10); assay type: in vivo; conditions: 3 cm stem cutting treated with azaconazole, bitertanol or another listed azole-type fungicide, four weeks after treatment
sugar cane [10] = test: Phytotoxicity on sugar cane, soil surface spray, azole-fungicide-treated stem cutting (Example 10)
Excerpt: as §1
A 30 to 40 cm stem cutting of sugar cane is placed on a wet soil, and germination is stimulated. The stem cutting from which a bud has grown to about 1 cm is selected, and the length of the stem cutting is adjusted to be 3 cm so that the stem cutting has one node. Azaconazole, bitertanol, bromoconazole, cyproconazole, difenoconazole, diniconazole, epoxyconazole, fenbuconazole, fluquinconazole, flusilazole, flutriafol, hexaconazole, imibenconazole, ipconazole, metconazole, myclobutanil, penconazole, propiconazole, prothioconazole, simeconazole, tebuconazole, tetraconazole, triadimenol, triticonazole, fenarimol, nuarimol, pyrifenox, imazalil, oxpoconazole fumarate, pefurazoate, procloraz or triflumizole is adhered to the stem cutting. A soil is packed into a plastic pot, and seeds of Amaranthus retroflexus are seeded thereon. The stem cutting of sugar cane treated with azaconazole, bitertanol, bromoconazole, cyproconazole, difenoconazole, diniconazole, epoxyconazole, fenbuconazole, fluquinconazole, flusilazole, flutriafol, hexaconazole, imibenconazole, ipconazole, metconazole, myclobutanil, penconazole, propiconazole, prothioconazole, simeconazole, tebuconazole, tetraconazole, triadimenol, triticonazole, fenarimol, nuarimol, pyrifenox, imazalil, oxpoconazole fumarate, pefurazoate, procloraz or triflumizole is planted in the soil packed into the pot at a depth of 2 cm. […] Thereafter, the pot for a test is placed in a greenhouse.

Amaranthus retroflexus [11] = test: Herbicidal activity, spray above weed before planting, azole-fungicide-treated stem cutting (Example 11); assay type: in vivo; conditions: sprayed above weed, 3 cm stem cutting treated with azaconazole, bitertanol or another listed azole-type fungicide planted one week after treatment, four weeks after treatment
Description: A soil is packed into a plastic pat, and seeds of Amaranthus retroflexus are seeded thereon. Thereafter, the pot is placed in a greenhouse, and the weed is grown.

Amaranthus retroflexus [12] = test: Herbicidal activity, spray above weed before planting, metalaxyl-treated stem cutting (Example 13); assay type: in vivo; conditions: sprayed above weed, 3 cm stem cutting treated with metalaxyl or metalaxyl-M planted one week after treatment, four weeks after treatment
Description: A 30 cm to 40 cm stem cutting of sugar cane is placed on a wet soil, and germination is stimulated. The stem cutting from which a bud has grown to about 1 cm is selected, and the length of the stem cutting is adjusted to be 3 cm so that the stem cutting has one node. Metalaxyl or metalaxyl-M is adhered to the stem cutting.

sugar cane [13] = test: Phytotoxicity on sugar cane, spray above weed before planting, metalaxyl-treated stem cutting (Example 13)
Description: as §1
A soil is packed into a plastic pot, and seeds of Amaranthus retroflexus are seeded thereon. Thereafter, a pot is placed in a greenhouse, and the weed is grown.
as §3, with “has” for “has been”, “node. Metalaxyl or metalaxyl-M is adhered to the stem cutting.” for “node.”
as §4

[14] = Example 5, sprayed above weed three weeks after seeding, 3 cm stem cutting planted one week after treatment, four weeks after treatment
[15] = Example 7, sprayed above weed, 3 cm stem cutting treated with clothianidin, thiamethoxiam, imidacloprid, dinotefuran, nitenpyram, acetamiprid or thiacloprid planted one week after treatment, four weeks after treatment
[16] = Example 8, 3 cm stem cutting treated with kresoxim-methyl, azoxystrobin or another listed strobilurin fungicide, soil surface spray, four weeks after treatment
[17] = Example 9, sprayed above weed, 3 cm stem cutting treated with kresoxim-methyl, azoxystrobin or another listed strobilurin fungicide planted one week after treatment, four weeks after treatment
[18] = Example 10, 3 cm stem cutting treated with azaconazole, bitertanol or another listed azole-type fungicide, soil surface spray, four weeks after treatment
[19] = Example 13, sprayed above weed, 3 cm stem cutting treated with metalaxyl or metalaxyl-M planted one week after treatment, four weeks after treatment

Row | SMILES | phytotoxicity (sugar cane [1]; in vivo) | herbicidal activity against Amaranthus retroflexus (Amaranthus retroflexus [2]) | herbicidal activity against Amaranthus retroflexus (Amaranthus retroflexus [3]) | phytotoxicity (sugar cane [4]; in vivo) | herbicidal activity against Amaranthus retroflexus (Amaranthus retroflexus [5]) | phytotoxicity (sugar cane [6]; in vivo) | herbicidal activity against Amaranthus retroflexus (Amaranthus retroflexus [7]) | phytotoxicity (sugar cane [8]; in vivo) | herbicidal activity against Amaranthus retroflexus (Amaranthus retroflexus [9]) | phytotoxicity (sugar cane [10]; in vivo) | herbicidal activity against Amaranthus retroflexus (Amaranthus retroflexus [11]) | herbicidal activity against Amaranthus retroflexus (Amaranthus retroflexus [12]) | phytotoxicity (sugar cane [13]; in vivo) | phytotoxicity (sugar cane [1]; [14]) | phytotoxicity (sugar cane [4]; [15]) | phytotoxicity (sugar cane [6]; [16]) | phytotoxicity (sugar cane [8]; [17]) | phytotoxicity (sugar cane [10]; [18]) | phytotoxicity (sugar cane [13]; [19])
1 | CC(C)Oc1cc(-n2nc(C(C)(C)C)oc2=O)c(Cl)cc1Cl [oxadiazon] | significant phytotoxicity on sugar cane is not found | the controlling effect on a weed can be confirmed | the controlling effect on a weed can be confirmed | significant phytotoxicity on sugar cane is not observed | the controlling effect on a weed can be confirmed | significant phytotoxicity on sugar cane is not observed | the controlling effect on a weed can be confirmed | significant phytotoxicity on sugar cane is not observed | the control effect on a weed can be confirmed | significant phytotoxicity on sugar cane is not observed | the controlling effect on a weed can be confirmed | the controlling effect on a weed can be confirmed | significant phytotoxicity on sugar cane is not observed |  |  |  |  |  | 
2 | CCOc1cc(Oc2ccc(C(F)(F)F)cc2Cl)ccc1[N+](=O)[O-] [oxyfluorfen] |  | the controlling effect on a weed can be confirmed | the controlling effect on a weed can be confirmed |  | the controlling effect on a weed can be confirmed |  | the controlling effect on a weed can be confirmed |  | the control effect on a weed can be confirmed |  | the controlling effect on a weed can be confirmed | the controlling effect on a weed can be confirmed |  | significant phytotoxicity on sugar cane is not found | significant phytotoxicity on sugar cane is not observed | significant phytotoxicity on sugar cane is not observed | significant phytotoxicity on sugar cane is not observed | significant phytotoxicity on sugar cane is not observed | significant phytotoxicity on sugar cane is not observed
3 | CC(C)N(C)S(=O)(=O)NC(=O)c1cc(-n2c(=O)cc(C(F)(F)F)n(C)c2=O)c(F)cc1Cl [Saflufenacil, saflufenacil] |  | the controlling effect on a weed can be confirmed | the controlling effect on a weed can be confirmed |  | the controlling effect on a weed can be confirmed |  | the controlling effect on a weed can be confirmed |  | the control effect on a weed can be confirmed |  | the controlling effect on a weed can be confirmed | the controlling effect on a weed can be confirmed |  | significant phytotoxicity on sugar cane is not found | significant phytotoxicity on sugar cane is not observed | significant phytotoxicity on sugar cane is not observed | significant phytotoxicity on sugar cane is not observed | significant phytotoxicity on sugar cane is not observed | significant phytotoxicity on sugar cane is not observed

From patent publication US20140329682A1, “METHOD OF CONTROLLING WEED IN A SUGAR CANE FIELD” (SUMITOMO CHEMICAL COMPANY, LIMITED, priority 2011, published 2014)
